Data reported in US20170101392A1, “PROCESSES FOR THE PREPARATION OF PESTICIDAL COMPOUNDS” (Dow AgroSciences LLC, priority 2013, published 2017).

Legend:
[1] = tested on: Sweetpotato Whitefly Crawler (Bemisia Tabaci) (BEMITA); experiment: Bioassay on sweetpotato whitefly crawler, foliar spray on infested cotton plants; format: in vivo; conditions: 200 ppm spray on cotton leaves, live nymphs counted after 8-9 days, Abbott's correction, read-out: BEMITA rating (% Control of Mortality)
Text: Bioassays on Sweetpotato Whitefly Crawler (Bemisia Tabaci) (BEMITA.)
The sweetpotato whitefly, Bemisia tabaci (Gennadius), has been recorded in the United States since the late 1800s. In 1986 in Florida, Bemisia tabaci became an extreme economic pest. Whiteflies usually feed on the lower surface of their host plant leaves. From the egg hatches a minute crawler stage that moves about the leaf until it inserts its microscopic, threadlike mouthparts to feed by sucking sap from the phloem. Adults and nymphs excrete honeydew (largely plant sugars from feeding on phloem), a sticky, viscous liquid in which dark sooty molds grow. Heavy infestations of adults and their progeny can cause seedling death, or reduction in vigor and yield of older plants, due simply to sap removal. The honeydew can stick cotton lint together, making it more difficult to gin and therefore reducing its value. Sooty mold grows on honeydew-covered substrates, obscuring the leaf and reducing photosynthesis, and reducing fruit quality grade. It transmitted plant-pathogenic viruses that had never affected cultivated crops and induced plant physiological disorders, such as tomato irregular ripening and squash silverleaf disorder. Whiteflies are resistant to many formerly effective insecticides.
Cotton plants grown in 3-inch pots, with 1 small (3-5 cm) true leaf, were used at test substrate. The plants were placed in a room with whitely adults. Adults were allowed to deposit eggs for 2-3 days. After a 2-3 day egg-laying period, plants were taken from the adult whitefly room. Adults were blown off leaves using a hand-held Devilbliss sprayer (23 psi). Plants with egg infestation (100-300 eggs per plant) were placed in a holding room for 5-6 days at 82° F. and 50% RH for egg hatch and crawler stage to develop. Four cotton plants were used for each treatment. Compounds (2 mg) were dissolved in 1 mL of acetone solvent, forming stock solutions of 2000 ppm. The stock solutions were diluted 10× with 0.025% Tween 20 in water to obtain a test solution at 200 ppm. A hand-held Devilbliss sprayer was used for spraying a solution to both sides of cotton leaf until runoff. Reference plants (solvent check) were sprayed with the diluent only. Treated plants were held in a holding room for 8-9 days at approximately 82° F. and 50% RH prior to grading. Evaluation was conducted by counting the number of live nymphs per plant under a microscope.

[2] = tested on: Green Peach Aphid ("GPA") (Myzus Persicae) (MYZUPE); experiment: Bioassay on green peach aphid (GPA), foliar spray on infested cabbage seedlings; format: in vivo; conditions: 72 h, 200 ppm spray on cabbage leaves, live aphids counted after three days, Abbott's correction, read-out: MYZUPE rating (% Control of Mortality)
Text: Bioassays on Green Peach Aphid (“GPA”) (Myzus Persicae) (MYZUPE.)
GPA is the most significant aphid pest of peach trees, causing decreased growth, shriveling of leaves, and the death of various tissues. It is also hazardous because it acts as a vector for the transport of plant viruses, such as potato virus Y and potato leafroll virus to members of the nightshade/potato family Solanaceae, and various mosaic viruses to many other food crops. GPA attacks such plants as broccoli, burdock, cabbage, carrot, cauliflower, daikon, eggplant, green beans, lettuce, macadamia, papaya, peppers, sweet potatoes, tomatoes, watercress and zucchini among other plants. GPA also attacks many ornamental crops such as carnations, chrysanthemum, flowering white cabbage, poinsettia and roses. GPA has developed resistance to many pesticides.
Several molecules disclosed herein were tested against GPA using procedures described below.
Cabbage seedling grown in 3-in pots, with 2-3 small (3-5 cm) true leaves, were used as test substrate. The seedlings were infested with […] (wingless adult and nymph stages) one day prior to chemical application. Four posts with individual seedlings were used for each treatment. Test compounds (2 mg) were dissolved in 2 mL of acetone/methanol (1:1) solvent, forming stock solutions of 1000 ppm test compound. The stock solutions were diluted 5× with 0.025% Tween 20 in water to obtain the solution at 200 ppm test compound. A hand-held aspirator-type sprayer was used for spraying a solution to both sides of the cabbage leaves until runoff. Reference plants (solvent check) were sprayed with the diluent only containing 20% by volume acetone/methanol (1:1) solvent. Treated plants were held in a holding room for three days at approximately 25° C. and ambient relative humidity (RH) prior to grading. Evaluation was conducted by counting the number of live aphids per plant under a microscope. Percent Control was measured by using Abbott's correction formula (W. S. Abbott, “A Method of Computing the Effectiveness of an Insecticide” J. Econ. Entomol 18 (1925), pp. 265-267) as follows.
Corrected % Control=100*(X−Y)/X • where • X=No. of live aphids on solvent check plants and • Y=No. of live aphids on treated plants
The results are indicated in the table entitled “Table 1: GPA (MYZUPE) and sweetpotato whitefly-crawler (BEMITA) Rating Table”.

## O=C(CCSCCC(F)(F)F)Nc1cn(-c2cccnc2)nc1Cl [Compound 5.5, N-(3-Chloro-1-(pyridin-3-yl)-1H-pyrazol-4-yl)-3-((3,3,3-trifluoropropyl)thio)-propanamide]
[1]
  mortality at 200 ppm: 0 to 80%
[2]
  mortality at 200 ppm: 80 to 100%

## ClC1=NN(c2cccnc2)CC1 [Compound 5a, 3-(3-Chloro-4,5-dihydro-1H-pyrazol-1-yl)pyridine]
[1]
  mortality at 200 ppm: 0 to 80%
[2]
  mortality at 200 ppm: 0 to 80%

## O=C(CCCl)Nc1cn(-c2cccnc2)nc1Cl [Compound 5e, 3-Chloro-N-(3-chloro-1-(pyridine-3-yl)-1H-pyrazol-4-yl)propanamide]
[1]
  mortality at 200 ppm: 80 to 100%
[2]
  mortality at 200 ppm: 80 to 100%

## CCN(C(=O)CCSCCC(F)(F)F)c1cn(-c2cccnc2)nc1Cl [Compound 8.5, N-(3-Chloro-1-(pyridin-3-yl)-1H-pyrazol-4-yl)-N-ethyl-3-((3,3,3-trifluropropyl)thio)propanamide]
[1]
  mortality at 200 ppm: 80 to 100%
[2]
  mortality at 200 ppm: 80 to 100%

## CCN(C(=O)CC[S+]([O-])CCC(F)(F)F)c1cn(-c2cccnc2)nc1Cl (stereo not shown) [Compound 9.5, N-(3-Chloro-1-(pyridin-3-yl)-1H-pyrazol-4-yl)-N-ethyl-3-((3,3,3-trifluropropyl)sulfoxo)propanamide]
[1]
  mortality at 200 ppm: 80 to 100%
[2]
  mortality at 200 ppm: 80 to 100%
